These results are taken from patent US20250019445A1, “P-SELECTIN INHIBITION FOR TREATMENT OF CANCER” (Ramot at Tel-Aviv University Ltd., priority 2022, published 2025).

The conditions of data set [1]: patients, administered systemically; cited from earlier work.
The test system of data set [2] is Human MDA-BM-231 3D spheroids. Nature of the data set: Breast cancer 3D spheroid invasion. It is filed as cell-based. The settings on record: co-cultured with brain microenvironment cells; FIG. 7B.
A further data set relates to A549 spheroids. The data set can be described thus: Lung cancer spheroid growth and invasion. It is filed as cell-based, human.
The test system of data set [3] is P-selectin-, E-selectin-, and L-selectin-dependent adhesion. The settings on record: in humans in vitro; cited from earlier work.
The conditions of data set [4]: different animal models; wording wraps from r29 ("anti-") to r30; cited from earlier work.

As for “inclacumab: monoclonal antibody directed towards P-selectin”, the tolerability entry in data set [1] is listed as “well tolerated”.

Consider `COc1ccc(C2CC(c3c(O)cc(C)oc3=O)=NCCS2)c(OC)c1` (stereo not shown) [SELPi, 3-[7-(2,4-Dimethoxyphenyl)-2,3,6,7-tetrahydro-1,4-thiazepin-5-yl]-4-hydroxy-6-methyl-2H-pyran-2-one], for which the spheroid invasion entry in data set [2] is given as “reduced invasion”. The “spheroid growth and invasion in Matrigel” value in the data set with A549 spheroids (FIG. 8D) is “reduced A549 spheroid growth and invasion in Matrigel, in a dose-dependent manner”. In the data set on A549 spheroids (in the presence of human microglia, FIG. 8C), the spheroid growth entry is reported as “inhibits A549 spheroid growth”.

Consider `O=C(O)Cc1cccc(-c2cc(CCCCCCc3ccc(O[C@H]4O[C@H](CO)[C@@H](O)[C@H](O)[C@@H]4O)c(-c4cccc(CC(=O)O)c4)c3)ccc2O[C@H]2O[C@H](CO)[C@@H](O)[C@H](O)[C@@H]2O)c1` [Bimosiamose], for which the “inhibition of selectin-dependent adhesion” value in data set [3] is “been shown to inhibit P-selectin-, E-selectin-, and L-selectin-”. For the same molecule, the anti-inflammatory effects entry in data set [4] is “inflammatory effects in different animal models”.

B1: crizanlizumab: Humanized monoclonal anti-P-selectin antibody. (antibody, chains of the INN, looked up, V domains shown)
VH: QVQLVQSGAEVKKPGASVKVSCKVSGYTFTSYDINWVRQAPGKGLEWMGWIYPGDGSIKYNEKFKGRVTMTVDKSTDTAYMELSSLRSEDTAVYYCARRGEYGNYEGAMDYWGQGTLVTVSS
VL: DIQMTQSPSSLSASVGDRVTITCKASQSVDYDGHSYMNWYQQKPGKAPKLLIYAASNLESGVPSRFSGSGSGTDFTLTISSLQPEDFATYYCQQSDENPLTFGGGTKVEIK
Consider B1, for which the tolerability entry in data set [1] is reported as “well tolerated”.
